Values of other authors in patent US20260102357A1, “Sulfur-Containing Ionizable Lipids for the Delivery of Therapeutic Agents” (NanoVation Therapeutics Inc., priority 2022, published 2026).

Conditions: delivery of siRNA; fold less siRNA than KC2

For `CCCCC/C=C\C/C=C\CCCCCCCCC(CCCCCCCC/C=C\C/C=C\CCCCC)OC(=O)CCCN(C)C` [MC3, DLin-MC3-DMA], the “siRNA required relative to KC2” value is listed as “about 3 times less”.
